Literature values as cited in patent US20050266409A1, “Compositions and methods for diagnosing, preventing, and treating cancers” (priority 2003, published 2005).

What was measured:
tumor cells = conditions: read-out: 50% growth inhibition of tumor cells
[1] = test system: lymphoid, myeloid, colon, and prostate cancer cells; conditions: prostate cancer xenografts in nude mice

For `CN1CC[C@H](c2c(O)cc(O)c3c(=O)cc(-c4ccccc4Cl)oc23)[C@H](O)C1` [Flavopiridol], the IC50 (tumor cells) is listed as 60 nM and the “inhibition of cancer cells grown in vivo as tumor xenografts” value [1] is listed as “inhibits”.
